According to patent US8586109B2, “Annatto extract compositions including tocotrienols and tocopherols and methods of use” (American River Nutrition, Inc., priority 2003, dated 2013):

Columns and labels:
[1] = test system: spontaneous hypertensive rats (SHR); conditions: Newaz and Nawal 1999; cited from earlier work
cholesterol = conditions: Pearce et al. 1992; cited from earlier work
essential hypertension = assay: Hypertension (Example 13); conditions: in vivo
Description: Also, C-5 unsubstituted tocols (i.e., all delta and gamma isomers) had this effect.

C-reactive protein = conditions: higher dosage needed; cited from earlier work
[2] = cited from earlier work
IKBKAP = conditions: Anderson et al. 2003; cited from earlier work
[3] = some biologic systems; cited from earlier work

| Molecule | development of increased blood pressure [1] | isomeric potency of cholesterol reduction (relative) (cholesterol) | NOS activity (essential hypertension) | development of increased blood pressure (essential hypertension) | essential hypertension (essential hypertension) | required dosage to lower CRP to a comparable range, relative to annatto tocotrienols (C-reactive protein) | Biologic activity relative to alpha-T3 ([2]; greater than alpha-T3) | Biologic activity relative to gamma-T3 ([2]; greater than gamma-T3) | increase of IKBKAP gene transcription (IKBKAP) [fold] | anti-oxidant power compared to alpha-T1 [3] |
| --- | --- | --- | --- | --- | --- | --- | --- | --- | --- | --- |
| CC(C)=CCC/C(C)=C/CC/C(C)=C/CC[C@]1(C)CCc2cc(O)c(C)c(C)c2O1 [Gamma-T3, gamma-tocotrienol] | prevent the development of increased blood pressure | five-fold greater than alpha-T3 | increased NOS activity | prevented the development of increased blood pressure | reduced essential hypertension |  |  |  |  |  |
| Cc1c(C)c2c(c(C)c1O)CC[C@@](C)(CCC[C@H](C)CCC[C@H](C)CCCC(C)C)O2 [alpha-T1, Alpha-tocopherol] |  |  |  |  |  | approximately 10 fold |  |  |  |  |
| CC(C)=CCC/C(C)=C/CC/C(C)=C/CC[C@]1(C)CCc2cc(O)cc(C)c2O1 [Delta-tocotrienol, delta-tocotrienol] |  | greater than gamma-T3 | increased NOS activity |  | reduced essential hypertension |  | 4-10 times | 1-2 times | 3.5 |  |
| Alpha-tocotrienol |  | at least five-fold less active |  |  |  |  |  |  |  | (40-60X in some biologic systems). First discovered to reduce cholesterol, |
